Measurements from patent US12516038B2, “Inhibitors of antigen presentation by HLA-DR” (Janssen Pharmaceutica NV, priority 2020, dated 2026).

Legend:
[1] = tested on: HLA-DR4 restricted mouse T cell hybridoma line (DR4.CII.36.8) with HLA-DRB1*04:01-expressing Boleth cells; test: HLA-DR4-restricted peptide-specific T cell-based assay (hybridoma assay); conditions: 6 h, inhibition of IL-2 production, CII259-273 peptide presented by Boleth cells
Outline: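 IC50 values derive from 4-parameter logistic fits of IL-2 AlphaLISA signal over 8-point duplicate titrations. Compound and HLA-DRB1*04:01 Boleth APCs were preincubated 1 h, 37° C., before adding CII259-273-restricted DR4.CII.36.8 hybridoma cells with peptide for 6 h at 37° C., in DMEM/1% FCS.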

[2] = molecular target: HLA-DRB1*0401 (Homo sapiens (Human), UniProt P01903+P01911, A100K/A169T/DEL228-266/F76Y/I96L/K127E/L162R/M171V/N62H/P40V/Q125Y/R42H/S133A/S149N/S66Y/V115G/V209L/W38E); test: HLA-DR4 HTRF assay; format: binding; conditions: inhibition of loading of Alexa Fluor 647-labeled Cit-CII peptide onto HLA-DR4 (CLIP cleaved)
Outline: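 HLA-DRB1*04:01 construct (α/β fused to human Fc, CLIP pre-cleaved by HRV3C overnight at 4° C) at 3 nM was preincubated 45 min with compound and 1 nM anti-Fc-Tb donor, then 40 nM Alexa647-Cit-CII1236-1249 peptide added. After 90 min at 37° C, the 665/620 nm HTRF ratio gave % inhibition; IC50 by nonlinear regression.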

[3] = tested on: human peripheral blood CD4+ helper T cells; test: Pan-CD4+ T cell activation (off-target assay); format: cell-based; conditions: anti-CD3/anti-CD28 stimulation, IL-2 production by ELISA
Description: The counter-screening was made through an HLA-DR-independent assay (Pan-CD4+ T cell activation assay), i.e., TCR-stimulated pan-T cell activation assay, and consists of activating T cell directly with agonistic antibody targeting the T cell receptor. The lack of inhibition in the counter-screening assay reflects that the inhibition of T cell activation in the HLA-DR4 restricted peptide-specific T cell based assay with the small molecule inhibitors is due to impaired antigen presentation on HLA-DR to the T cell and not due to a direct inhibition of the T cell function by an off-target mechanism (i.e., independently of targeting HLA-DR).
Pan-CD4+ T Cell Activation
Compounds were tested using a pan-T cell activation assay. In this assay, anti-human CD3 antibody (BD Pharmingen #55336) pre-coated at 1 μg/mL to a 96-well assay plate and 1 μg/ml soluble anti-human CD28 (EBioscience #16-0289-85) antibody were used for activating human peripheral blood CD4+ helper T cells (no HLA-DR-expressing APC were present in this assay format), in the presence of compounds (or vehicle control) for 24 hrs. IL-2 production was measured in the culture supernatant by ELISA (Human IL-2 Duo Set ELISA #DY202 from R&D Systems).

Structure (SMILES): NC(=O)c1ccc([C@H](Oc2ccc3c(c2)OCCC3=O)c2ccncc2C(F)(F)F)cc1 (single isomer, unassigned) [Example 19b, (*S)-4-(((4-oxochroman-7-yl)oxy)(3-(trifluoromethyl)pyridin-4-yl)methyl)benzamide]
- IC50 ([1]; Mus musculus, T-cell): 7.6 µM
- IC50 [2]: 1.2 µM
- IC50 ([3]; Homo sapiens, T-cell, 24 h): 4.7 µM

Structure (SMILES): NC(=O)c1ccc([C@@H](Oc2ccc3c(c2)OCCC3=O)c2ccnc3ccccc23)cc1 (single isomer, unassigned) [Example 22a, (*R)-4-(((4-oxochroman-7-yl)oxy)(quinolin-4-yl)methyl)benzamide]
- IC50 ([1]; Mus musculus, T-cell): 1.9 µM
- IC50 [2]: 1.3 µM
- IC50 ([3]; Homo sapiens, T-cell, 24 h): 4.7 µM

Structure (SMILES): NC(=O)c1ccc([C@H](Oc2ccc3c(c2)OCCC3=O)c2ccnc3ccccc23)cc1 (single isomer, unassigned) [Example 22b, (*S)-4-(((4-oxochroman-7-yl)oxy)(quinolin-4-yl)methyl)benzamide]
- IC50 ([1]; Mus musculus, T-cell): 2.2 µM
- IC50 [2]: 1.2 µM
- IC50 ([3]; Homo sapiens, T-cell, 24 h): 15 µM

Structure (SMILES): COc1cnccc1[C@@H](Oc1ccc2c(c1)OCCC2=O)c1ccc(C(N)=O)cc1 (single isomer, unassigned) [Example 23b, (*S)-4-((3-methoxypyridin-4-yl)((4-oxochroman-7-yl)oxy)methyl)benzamide]
- IC50 ([1]; Mus musculus, T-cell): 5 µM
- IC50 [2]: 0.68 µM
- IC50 ([3]; Homo sapiens, T-cell, 24 h): > 15 µM

Structure (SMILES): COc1cc([C@H](Oc2ccc3c(c2)OCCC3=O)c2ccc(C(N)=O)cc2)ccn1 (single isomer, unassigned) [Example 24a, (*R)-4-((2-methoxypyridin-4-yl)((4-oxochroman-7-yl)oxy)methyl)benzamide]
- IC50 ([1]; Mus musculus, T-cell): 5.1 µM
- IC50 [2]: 1.4 µM
- IC50 ([3]; Homo sapiens, T-cell, 24 h): > 15 µM

Structure (SMILES): COc1cc([C@@H](Oc2ccc3c(c2)OCCC3=O)c2ccc(C(N)=O)cc2)ccn1 (single isomer, unassigned) [Example 24b, (*S)-4-((2-methoxypyridin-4-yl)((4-oxochroman-7-yl)oxy)methyl)benzamide]
- IC50 ([1]; Mus musculus, T-cell): 2.7 µM
- IC50 [2]: 1.2 µM
- IC50 ([3]; Homo sapiens, T-cell, 24 h): 4.7 µM

Structure (SMILES): NC(=O)c1ccc([C@H](Oc2ccc3c(c2)OCCC3=O)c2ccncc2-c2ccccc2)cc1 (single isomer, unassigned) [Example 25b, (*S)-4-(((4-oxochroman-7-yl)oxy)(3-phenylpyridin-4-yl)methyl)benzamide]
- IC50 ([1]; Mus musculus, T-cell): 4.5 µM
- IC50 [2]: 0.49 µM
- IC50 ([3]; Homo sapiens, T-cell, 24 h): 3.2 µM

Structure (SMILES): NC(=O)c1ccc([C@@H](Oc2ccc3c(c2)OCCC3=O)c2ccnc(-c3ccccc3)c2)cc1 (single isomer, unassigned) [Example 26a, (*R)-4-(((4-oxochroman-7-yl)oxy)(2-phenylpyridin-4-yl)methyl)benzamide]
- IC50 ([1]; Mus musculus, T-cell): 1.1 µM
- IC50 [2]: 64 µM
- IC50 ([3]; Homo sapiens, T-cell, 24 h): > 15 µM

Structure (SMILES): NC(=O)c1ccc([C@H](Oc2ccc3c(c2)OCCC3=O)c2ccnc(-c3ccccc3)c2)cc1 (single isomer, unassigned) [Example 26b, (*S)-4-(((4-oxochroman-7-yl)oxy)(2-phenylpyridin-4-yl)methyl)benzamide]
- IC50 ([1]; Mus musculus, T-cell): 1.6 µM
- IC50 [2]: 88 µM
- IC50 ([3]; Homo sapiens, T-cell, 24 h): 15 µM

Structure (SMILES): NC(=O)c1ccc([C@H](Oc2ccc3c(c2)OCCC3=O)c2ccnc(N)c2)cc1 (single isomer, unassigned) [Example 28b, (*S)-4-((2-aminopyridin-4-yl)((4-oxochroman-7-yl)oxy)methyl)benzamide]
- IC50 ([1]; Mus musculus, T-cell): 3.5 µM
- IC50 [2]: 1.7 µM
- IC50 ([3]; Homo sapiens, T-cell, 24 h): > 15 µM

Structure (SMILES): NC(=O)c1ccc([C@H](Oc2ccc3c(c2)OCCC3=O)c2ccccc2)cc1 (single isomer, unassigned) [Example 29a, (*R)-4-(((4-oxochroman-7-yl)oxy)(phenyl)methyl)benzamide]
- IC50 ([1]; Mus musculus, T-cell): 2.3 µM
- IC50 [2]: 1.1 µM
- IC50 ([3]; Homo sapiens, T-cell, 24 h): > 15 µM

Structure (SMILES): NC(=O)c1ccc([C@@H](Oc2ccc3c(c2)OCCC3=O)c2ccccc2)cc1 (single isomer, unassigned) [Example 29b, (*S)-4-(((4-oxochroman-7-yl)oxy)(phenyl)methyl)benzamide]
- IC50 ([1]; Mus musculus, T-cell): 5 µM
- IC50 [2]: 0.96 µM
- IC50 ([3]; Homo sapiens, T-cell, 24 h): > 15 µM

Structure (SMILES): NC(=O)c1ccc([C@@H](Oc2ccc3c(c2)OCCC3=O)c2cccnc2)cc1 (single isomer, unassigned) [Example 31a, (*R)-4-(((4-oxochroman-7-yl)oxy)(pyridin-3-yl)methyl)benzamide]
- IC50 ([1]; Mus musculus, T-cell): 5.5 µM
- IC50 [2]: 0.85 µM
- IC50 ([3]; Homo sapiens, T-cell, 24 h): 15 µM

Structure (SMILES): NC(=O)c1ccc([C@@H](Oc2ccc3c(c2)OCCC3=O)c2cccnc2)cc1 (single isomer, unassigned) [Example 31b, (*S)-4-(((4-oxochroman-7-yl)oxy)(pyridin-3-yl)methyl)benzamide]
- IC50 [1]: 3.5 µM
- IC50 [2]: 0.64 µM
- IC50 ([3]; 24 hrs): > 15 µM

Structure (SMILES): CNC(=O)c1ccc([C@@H](Oc2ccc3c(c2)OCCC3=O)c2ccncc2)cc1 (single isomer, unassigned) [Example 34a, (*R)—N-methyl-4-(((4-oxochroman-7-yl)oxy)(pyridin-4-yl)methyl)benzamide]
- IC50 ([1]; Mus musculus, T-cell): 12 µM
- IC50 [2]: 0.8 µM
- IC50 ([3]; Homo sapiens, T-cell, 24 h): 9.9 µM

Structure (SMILES): CNC(=O)c1ccc([C@H](Oc2ccc3c(c2)OCCC3=O)c2ccncc2)cc1 (single isomer, unassigned) [Example 34b, (*S)—N-methyl-4-(((4-oxochroman-7-yl)oxy)(pyridin-4-yl)methyl)benzamide]
- IC50 ([1]; Mus musculus, T-cell): > 15 µM
- IC50 [2]: 0.69 µM
- IC50 ([3]; Homo sapiens, T-cell, 24 h): > 15 µM

Structure (SMILES): Cc1cc(C(N)=O)ccc1[C@H](Oc1ccc2c(c1)OCCC2=O)c1ccncc1 (single isomer, unassigned) [Example 36a, (*R)-3-methyl-4-(((4-oxochroman-7-yl)oxy)(pyridin-4-yl)methyl)benzamide]
- IC50 ([1]; Mus musculus, T-cell): 4.8 µM
- IC50 [2]: 0.55 µM
- IC50 ([3]; Homo sapiens, T-cell, 24 h): 4.7 µM

Structure (SMILES): N#Cc1ccc([C@H](Oc2ccc3c(c2)OCCC3=O)c2ccncc2)c2ccccc12 (single isomer, unassigned) [Example 37a, (*R)-4-(((4-oxochroman-7-yl)oxy)(pyridin-4-yl)methyl)-1-naphthonitrile]
- IC50 ([1]; Mus musculus, T-cell): 9.3 µM
- IC50 [2]: 33 µM
- IC50 ([3]; Homo sapiens, T-cell, 24 h): 2 µM

Structure (SMILES): N#Cc1ccc([C@@H](Oc2ccc3c(c2)OCCC3=O)c2ccncc2)c2ccccc12 (single isomer, unassigned) [Example 37b, (*S)-4-(((4-oxochroman-7-yl)oxy)(pyridin-4-yl)methyl)-1-naphthonitrile]
- IC50 ([1]; Mus musculus, T-cell): 5.1 µM
- IC50 [2]: 24 µM
- IC50 ([3]; Homo sapiens, T-cell, 24 h): 9.9 µM

Structure (SMILES): O=C1CCOc2cc(O[C@@H](c3ccncc3)C3CCCCC3)ccc21 (single isomer, unassigned) [Example 38a, (*R)-7-(cyclohexyl(pyridin-4-yl)methoxy)chroman-4-one]
- IC50 ([1]; Mus musculus, T-cell): 4 µM
- IC50 [2]: 4.6 µM
- IC50 ([3]; Homo sapiens, T-cell, 24 h): 4.7 µM

Structure (SMILES): O=C1CCOc2cc(O[C@H](c3ccncc3)C3CCCCC3)ccc21 (single isomer, unassigned) [Example 38b, (*S)-7-(cyclohexyl(pyridin-4-yl)methoxy)chroman-4-one]
- IC50 ([1]; Mus musculus, T-cell): 5.5 µM
- IC50 [2]: 4.1 µM
- IC50 ([3]; Homo sapiens, T-cell, 24 h): > 15 µM

Structure (SMILES): C[C@@H]1CC(=O)c2ccc(O[C@@H](c3ccncc3)c3ccc(C(N)=O)cc3)cc2O1 (single isomer, unassigned) [Example 39b, 4-((*R)—(((*R)-2-Methyl-4-oxochroman-7-yl)oxy)(pyridin-4-yl)methyl)benzamide]
- IC50 ([1]; Mus musculus, T-cell): 0.6 µM
- IC50 [2]: 0.85 µM
- IC50 ([3]; Homo sapiens, T-cell, 24 h): 9.9 µM

Structure (SMILES): C[C@H]1CC(=O)c2ccc(O[C@@H](c3ccncc3)c3ccc(C(N)=O)cc3)cc2O1 (single isomer, unassigned) [Example 39c, 4-((*R)—(((*S)-2-Methyl-4-oxochroman-7-yl)oxy)(pyridin-4-yl)methyl)benzamide]
- IC50 ([1]; Mus musculus, T-cell): 1.1 µM
- IC50 [2]: 0.99 µM
- IC50 ([3]; Homo sapiens, T-cell, 24 h): 9.9 µM

Structure (SMILES): CC[C@@H]1CC(=O)c2ccc(O[C@@H](c3ccncc3)c3ccc(C(N)=O)cc3)cc2O1 (single isomer, unassigned) [Example 40a, 4-((*R)—(((*R)-2-ethyl-4-oxochroman-7-yl)oxy)(pyridin-4-yl)methyl)benzamide]
- IC50 ([1]; Mus musculus, T-cell): 0.76 µM
- IC50 [2]: 1.5 µM
- IC50 ([3]; Homo sapiens, T-cell, 24 h): 15 µM

Structure (SMILES): CC[C@H]1CC(=O)c2ccc(O[C@@H](c3ccncc3)c3ccc(C(N)=O)cc3)cc2O1 (single isomer, unassigned) [Example 40b, 4-((*R)—(((*S)-2-ethyl-4-oxochroman-7-yl)oxy)(pyridin-4-yl)methyl)benzamide]
- IC50 ([1]; Mus musculus, T-cell): 1 µM
- IC50 [2]: 1.3 µM
- IC50 ([3]; Homo sapiens, T-cell, 24 h): 15 µM
